Like-named read-outs stand apart in the source and are kept apart here. Marks after values point to notes of the source that are not given here.
What was measured:
[1] = Stability and protonation constants of Fe^III complexes (pH-potentiometry, spectrophotometry, competition with Bha^−); assay type: physicochemical; settings: 0.15 M NaNO3, 25°C
Method: Stability constant of [Fe(Bha)]^2+ complex was determined by spectrophotometry, studying the Fe^III-HBha systems at the absorption band of Fe^III-complex over the wavelength range of 400–800 nm in two sets of experiments. Individual samples were prepared in the first series in which the concentrations of Fe^III and HBha was constant 0.2 and 2.0 mM, while that of the H^+ was varied between […] (eight samples, Figure S1). The H^+ concentration in the samples was adjusted by addition of calculated amounts of 2.0 M HNO3. The ionic strength was constant in the samples with [H^+] < 0.15 M ([H^+]+[Na^+] = 0.15 M). Samples were kept at 25°C for a week. Absorbance values were determined at 11 wavelengths (400, 415, 430, 445, 460, 475, 490, 505, 520, 535, and 550 nm). In the second set, spectrophotometric titrations were done with samples containing HBha ligand in 2.0 mM concentration, whereas the concentration of Fe^III was varied between 0.1–0.3 mM (Figures S2–S4). The pH of the samples was adjusted using concentrated NaOH and HNO3 solutions in the pH range 1.7–11.0 (0.15 M NaNO3 and 25°C). For calculation of the equilibrium constants, the best fit of the absorbance–pH data was obtained by assuming formation of [Fe(Bha)]^2+, [Fe(Bha)2]^+, [Fe(Bha)3], and [Fe(Bha)2(OH)2]^− species (Figure S5). The molar absorptivity of [Fe(Bha)]^2+, [Fe(Bha)2]^+, [Fe(Bha)3] and [Fe(Bha)2(OH)2]^− species were also determined at the same 11 wavelengths in these experiments (Figure S6).
The stability constant of the [Fe(TRAP)]^3− complex has been determined by spectrophotometry, using competition reactions between HTRAP^5− and Bha^− for Fe^III at pH = 10.0. Concentration of [Fe(TRAP)]^3− was 0.2 mM, while that of HBha was varied between 0.0 and 1.5 mM (6 samples). The samples were kept at 25°C for 2 weeks. Absorbance values of the Fe^III-HTRAP^5−-Bha^− systems were determined at 11 wavelengths (400, 415, 430, 445, 460, 475, 490, 505, 520, 535, and 550 nm). The molar absorptivities of [Fe(TRAP)]^3− and [Fe(TRAP)OH]^4− in equilibrium solutions were determined by recording the absorption spectra of 0.1, 0.2, and 0.3 mM solution of [Fe(TRAP)]^3− in the pH range 6.0–12.0. The molar absorptivity of [Fe(Bha)2(OH)2]^− species was determined in the separate experiments. Absorbance and pH values were determined in the samples after equilibration (the time needed to reach the equilibria was determined by spectrophotometry). Spectrophotometric measurements were done using 1.0 cm cells with a Cary 1E spectrophotometer at 25°C. Protonation constants of the Fe^III complex formed with TRAP^6− were determined by direct pH-potentiometric titration at 1:1 metal to ligand ratios (both concentrations were 0.002 M). For calculation of the logKMHiL values, the mL base–pH data used were measured in the pH range 1.7 −12.0.
For pH measurements and titrations, a Metrohm 785 DMP Titrino titration workstation and a Metrohm-6.0233.100 combined electrode were used. Equilibrium measurements were carried out at a constant ionic strength (0.15 M NaNO3 or NaCl) in 6 mL samples at 25°C. Solutions were stirred and continuously purged with N2. Titrations were performed in a pH range of 1.7–12.0. […] For calculation of [H^+] from measured pH values, the method proposed by Irving et al. was used (Irving et al., [1967]). […] Differences between the measured (pHread) and calculated pH (–log[H^+]) values were used to obtain the equilibrium H^+ concentration from the pH values, measured in the titration experiments. […]

[2] = Fe^III, 25°C, cited from earlier work
[3] = 25°C, cited from earlier work
[4] = Protonation constants of ligands by pH-potentiometry; assay type: physicochemical; settings: 0.15 M NaNO3, 25°C
Method: For determining the protonation constants of H6TRAP and H3NOTA ligands three parallel pH-potentiometric titration were made with 0.2 M NaOH in 0.002 M ligand solutions.
For pH measurements and titrations, a Metrohm 785 DMP Titrino titration workstation and a Metrohm-6.0233.100 combined electrode were used. Equilibrium measurements were carried out at a constant ionic strength (0.15 M NaNO3 or NaCl) in 6 mL samples at 25°C. Solutions were stirred and continuously purged with N2. Titrations were performed in a pH range of 1.7–12.0. KH-phthalate (pH = 4.005) and borax (pH = 9.177) buffers were used to calibrate the pH meter. For calculation of [H^+] from measured pH values, the method proposed by Irving et al. was used (Irving et al., [1967]). A 0.01 M HNO3 or HCl solution was titrated with the standardized NaOH solution in the presence of 0.15 M NaNO3 or NaCl. Differences between the measured (pHread) and calculated pH (–log[H^+]) values were used to obtain the equilibrium H^+ concentration from the pH values, measured in the titration experiments. For equilibrium calculations, the stoichiometric water ionic product (pKw) is also needed to calculate [H^+] values in basic conditions. The VNaOH–pHread data pairs of the HNO3–NaOH or HCl–NaOH titration obtained in the pH range 10.5–12.0 have been used to calculate the pKw value (pKw = 13.84). For calculation of the equilibrium constants, the program PSEQUAD (Zekany and Nagypal, [1985]) was used. The standard deviation (SD) of the equilibrium parameters calculated by the program PSEQUAD is defined by Equation (1)
Protonation equilibria of the TRAP^6−, NOTA^3− and Bha^− ligands were studied by pH-potentiometry. The protonation constants (log KiH ) of ligands defined by Equation (3) are listed in Table 1 (standard deviations are shown in parentheses). The charges of ligands and complexes will be indicated when it is necessary.
(3) KiH=[HiL]/[Hi−1L][H^+] i=0,1,2…6

[5] = cited from earlier work; for log β3OH hydrolysis constant: M(OH)3, ref Baes and Mesmer; for log β3OH hydrolysis constant / log β2OH hydrolysis constant / log β1OH hydrolysis constant: [1976]; for log β2OH hydrolysis constant: [M(OH)2]^+; for log β1OH hydrolysis constant: [M(OH)]^2+
[6] = 25°C, cited from earlier work; remark: listed apart in the source
[7] = parameters: method as in Brucher and Sherry, [1990]; settings: 25°C, ref Brucher and Sherry, [1990]; cited from earlier work
[8] = parameters: method as in Notni et al., [2010]; Baranyai et al., [2015]; settings: Zn^II, ref Notni et al., [2010]; Baranyai et al., [2015]; cited from earlier work
[9] = 0.2 M KCl, ref Farkas et al., [1998]
[10] = ref Baes and Mesmer, listed as Fe^3+
[11] = 0.1 M KCl, ref Clarke and Martell, [1991]
[12] = 0.1 M Me4NCl, ref Drahos et al., [2011]
[13] = 0.15 M NaCl, ref Baranyai et al., [2015]
[14] = Ga^III, 0.1 M Me4NCl, ref Simecek et al., [2012]

## O=C(NO)c1ccccc1 [Bha^−, benzhydroxamic acid]
[1]
  logK ML2: 9.03(2)
  logK ML3: 7.41(3)
  logK ML stability constant: 10.80(2)
  logβFeL2(OH)2: 6.68(5)
[2]; [9]
  logK ML2: 10.12
  logK ML3: 7.60
  logK ML stability constant: 11.08
[3]; [9]
  log K1H protonation constant: 8.69
[4]
  log K1H protonation constant: 8.53(3)

## [Fe+3] [Fe^III]
[5]
  log β3OH hydrolysis constant: −12.0
[5]; listed as Fe^3+
  log β3OH hydrolysis constant: –12.0
[5]; [Fe(OH)4]^-, ref Baes and Mesmer, 1976
  logβ4^OH hydrolysis constant: –21.6
[5]; ref Baes and Mesmer
  log β2OH hydrolysis constant: −5.67
  log β1OH hydrolysis constant: −2.19
[5]; [10]
  log β2OH hydrolysis constant: –5.67
  log β1OH hydrolysis constant: –2.19

## [Ga+3] [Ga^III]
[5]
  log β3OH hydrolysis constant: −8.2
[5]; ref Baes and Mesmer
  log β2OH hydrolysis constant: −5.92
  log β1OH hydrolysis constant: −2.97

## O=C(O)CN1CCN(CC(=O)O)CCN(CC(=O)O)CC1 [NOTA^3−, 1,4,7-triazacyclononane-1,4,7-triacetic acid]
[1]
  logK M(L)OH: 9.12(4)^e
[2]; [11]
  logK ML stability constant: 28.3
[3]; [11]
  log K1H protonation constant: 11.98
  log K2H protonation constant: 5.65
  log K3H protonation constant: 3.18
[3]; [12]
  log K1H protonation constant: 13.17
  log K2H protonation constant: 5.74
  log K3H protonation constant: 3.22
  log K4H protonation constant: 1.96
  Σlog KiH total ligand basicity: 24.09
[3]; [13]
  log K1H protonation constant: 12.16
  log K2H protonation constant: 5.75
  log K3H protonation constant: 3.18
  log K4H protonation constant: 1.90
[3]; 0.15 M NaCl, for TRAP^6− log K3H, K4H, K5H not considered, ref Baranyai et al., [2015]
  Σlog KiH total ligand basicity: 22.99
[4]
  log K1H protonation constant: 11.94(2)
  log K2H protonation constant: 5.71(3)
  log K3H protonation constant: 3.14(3)
  log K4H protonation constant: 1.60(2)
[4]; for TRAP^6− log K3H, K4H, K5H not considered
  Σlog KiH total ligand basicity: 22.39
[6]; [14]
  logK M(L)OH: 9.83
  logK MHL protonation constant of complex: 0.9
  logK ML stability constant: 29.60

## O=C([O-])CN1CCN(CC(=O)[O-])CCN(CC(=O)[O-])CC1.[Ce+3] [[Ce(NOTA)]]
[7]
  kOH formation rate constant: 6.3e+07 M⁻¹ s⁻¹

## O=C([O-])CN1CCN(CC(=O)[O-])CCN(CC(=O)[O-])CC1.[Er+3] [[Er(NOTA)]]
[7]
  kOH formation rate constant: 5.5e+07 M⁻¹ s⁻¹

## O=C([O-])CN(CCN(CC(=O)[O-])Cc1ccccc1[O-])Cc1ccccc1[O-].[Ga+3] [[Ga(HBED)]^−]
[6]; 0.1 M KCl, ref Ma et al., [1994]
  logKGa(HBED) stability constant: 38.51

## O=C([O-])CN1CCN(CC(=O)[O-])CCN(CC(=O)[O-])CC1.[Gd+3] [[Gd(NOTA)]]
[7]
  kOH formation rate constant: 7.1e+07 M⁻¹ s⁻¹

## O=C([O-])CCP(=O)(O)CN1CCN(CP(=O)(O)CCC(=O)[O-])CCN(CP(=O)(O)CCC(=O)O)CC1.[Zn+2] [[Zn(TRAP)]^4−]
[8]
  logKML stability constant: 16.07

— publication PMC5974124, “Equilibrium Thermodynamics, Formation, and Dissociation Kinetics of Trivalent Iron and Gallium Complexes of Triazacyclononane-Triphosphinate (TRAP) Chelators: Unraveling the Foundations of Highly Selective Ga-68 Labeling” (Frontiers in Chemistry, 2018)
